Experiments:
Test in all cases: 33PanQinase kinome-wide selectivity profile (Reaction Biology)
Type in all cases: biochemical
350 wild-type kinases [1] = target: T1, 350 wild-type kinases (Homo sapiens, UniProt Q9Y243); details: kinase AKT3, ATP 3 µM, singlicate
T1 construct: purchased Reaction Biology (assay service)
Method: (§1) Compound RN341 was tested at two concentrations of 1 and 10 μM against a panel of 350 wild-type kinases in the ^33PanQinase assay. The assay was performed by Reaction Biology (www.reactionbiology.com/services/kinase-assays/kinase-panel-screening/).

350 wild-type kinases [2] = target: T2, 350 wild-type kinases (Homo sapiens, UniProt P50750); details: singlicate; for Residual activity (% of control), CDK9/CycK: kinase CDK9/CycK, ATP 1 µM; for Residual activity (% of control), CDK9/CycT1: kinase CDK9/CycT1, ATP 0,3 µM
T2 construct: purchased Reaction Biology (assay service)
T2 sequence (P50750 whole entry): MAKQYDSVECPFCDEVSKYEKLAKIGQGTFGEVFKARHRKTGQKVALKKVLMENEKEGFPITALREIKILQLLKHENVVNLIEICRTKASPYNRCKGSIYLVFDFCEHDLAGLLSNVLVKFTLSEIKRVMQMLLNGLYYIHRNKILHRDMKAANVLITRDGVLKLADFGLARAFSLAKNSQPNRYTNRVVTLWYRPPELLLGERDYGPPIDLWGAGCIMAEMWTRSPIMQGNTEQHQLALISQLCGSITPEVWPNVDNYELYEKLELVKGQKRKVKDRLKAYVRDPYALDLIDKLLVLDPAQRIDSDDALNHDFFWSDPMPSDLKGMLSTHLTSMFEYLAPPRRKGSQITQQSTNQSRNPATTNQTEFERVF
Method: as §1

350 wild-type kinases [3] = target: T3, 350 wild-type kinases (Homo sapiens, UniProt P31749); details: kinase AKT1, ATP 1 µM, singlicate
T3 construct: purchased Reaction Biology (assay service)
Method: as §1

350 wild-type kinases [4] = target: T4, 350 wild-type kinases (Homo sapiens, UniProt Q16566); details: kinase CAMK4, ATP 1 µM, singlicate
T4 construct: purchased Reaction Biology (assay service)
Method: as §1

350 wild-type kinases [5] = target: T5, 350 wild-type kinases (Homo sapiens, UniProt P24941); details: singlicate; for Residual activity (% of control), CDK2/CycA2: kinase CDK2/CycA2, ATP 0,3 µM; for Residual activity (% of control), CDK2/CycD1: kinase CDK2/CycD1, ATP 3 µM; for Residual activity (% of control), CDK2/CycE1: kinase CDK2/CycE1, ATP 1 µM
T5 construct: purchased Reaction Biology (assay service)
Method: as §1

350 wild-type kinases [6] = target: T6, 350 wild-type kinases (Homo sapiens, UniProt P37023); details: kinase ACVRL1, ATP 1 µM, singlicate
T6 construct: purchased Reaction Biology (assay service)
Method: as §1

350 wild-type kinases [7] = target: T7, 350 wild-type kinases (Homo sapiens, UniProt P78368); details: kinase CK1gamma2, ATP 0,1 µM, singlicate
T7 construct: purchased Reaction Biology (assay service)
Method: as §1

350 wild-type kinases [8] = target: T8, 350 wild-type kinases (Homo sapiens, UniProt Q8IZL9); details: singlicate; for Residual activity (% of control), CDK20/CycH: kinase CDK20/CycH, ATP 0,1 µM; for Residual activity (% of control), CDK20/CycT1: kinase CDK20/CycT1, ATP 1 µM
T8 construct: purchased Reaction Biology (assay service)
T8 sequence (Q8IZL9 whole entry): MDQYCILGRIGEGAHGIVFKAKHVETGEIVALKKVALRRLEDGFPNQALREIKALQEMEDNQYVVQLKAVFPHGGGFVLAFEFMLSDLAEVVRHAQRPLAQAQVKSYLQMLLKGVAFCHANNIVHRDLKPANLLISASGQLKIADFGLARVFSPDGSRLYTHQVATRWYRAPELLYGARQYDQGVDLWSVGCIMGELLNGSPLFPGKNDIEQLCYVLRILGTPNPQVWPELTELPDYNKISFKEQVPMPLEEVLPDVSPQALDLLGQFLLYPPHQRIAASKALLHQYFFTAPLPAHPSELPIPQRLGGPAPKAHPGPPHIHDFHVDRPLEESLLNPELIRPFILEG
Method: as §1

350 wild-type kinases [9] = target: T9, 350 wild-type kinases (Homo sapiens, UniProt P06493); details: singlicate; for Residual activity (% of control), CDK1/CycA2: kinase CDK1/CycA2, ATP 0,3 µM; for Residual activity (% of control), CDK1/CycB1: kinase CDK1/CycB1; for Residual activity (% of control), CDK1/CycB1 / Residual activity (% of control), CDK1/CycE1: ATP 1 µM; for Residual activity (% of control), CDK1/CycE1: kinase CDK1/CycE1
T9 construct: purchased Reaction Biology (assay service)
T9 sequence (P06493 whole entry): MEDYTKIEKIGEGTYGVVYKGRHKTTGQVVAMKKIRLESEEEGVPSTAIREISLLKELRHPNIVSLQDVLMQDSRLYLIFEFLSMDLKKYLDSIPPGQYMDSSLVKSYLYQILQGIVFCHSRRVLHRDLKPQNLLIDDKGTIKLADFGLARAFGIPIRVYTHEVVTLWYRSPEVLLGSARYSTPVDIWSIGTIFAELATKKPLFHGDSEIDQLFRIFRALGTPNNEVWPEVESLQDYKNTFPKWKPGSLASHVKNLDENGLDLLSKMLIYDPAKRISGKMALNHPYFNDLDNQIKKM
Method: as §1

350 wild-type kinases [10] = target: T10, 350 wild-type kinases (Homo sapiens, UniProt Q96Q40); details: singlicate; for Residual activity (% of control), CDK15/CycA2: kinase CDK15/CycA2, ATP 1 µM; for Residual activity (% of control), CDK15/CycB1: kinase CDK15/CycB1, ATP 0,3 µM
T10 construct: purchased Reaction Biology (assay service)
T10 sequence (Q96Q40 whole entry): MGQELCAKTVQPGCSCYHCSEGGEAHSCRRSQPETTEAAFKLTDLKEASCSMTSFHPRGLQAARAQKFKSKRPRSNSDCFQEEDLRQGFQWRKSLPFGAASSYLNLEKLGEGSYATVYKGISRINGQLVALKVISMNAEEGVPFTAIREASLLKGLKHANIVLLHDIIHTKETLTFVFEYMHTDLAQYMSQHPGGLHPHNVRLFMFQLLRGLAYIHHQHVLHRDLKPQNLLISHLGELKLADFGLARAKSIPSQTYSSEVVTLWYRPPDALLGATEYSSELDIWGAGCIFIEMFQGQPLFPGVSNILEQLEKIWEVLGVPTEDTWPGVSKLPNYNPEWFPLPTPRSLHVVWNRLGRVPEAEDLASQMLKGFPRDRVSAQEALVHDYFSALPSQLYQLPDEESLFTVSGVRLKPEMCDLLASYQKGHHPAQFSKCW
Method: as §1

350 wild-type kinases [11] = target: T11, 350 wild-type kinases (Homo sapiens, UniProt P49761); details: kinase CLK3, ATP 0,3 µM, singlicate
T11 construct: purchased Reaction Biology (assay service)
Method: as §1

350 wild-type kinases [12] = target: T12, 350 wild-type kinases (Homo sapiens, UniProt P41240); details: kinase CSK, ATP 1 µM, singlicate
T12 construct: purchased Reaction Biology (assay service)
Method: as §1

350 wild-type kinases [13] = target: T13, 350 wild-type kinases (Homo sapiens, UniProt Q13705); details: kinase ACVR2B, ATP 1 µM, singlicate
T13 construct: purchased Reaction Biology (assay service)
Method: as §1

350 wild-type kinases [14] = target: T14, 350 wild-type kinases (Homo sapiens, UniProt Q9NYV4); details: kinase CDK12/CycK, ATP 0,3 µM, singlicate
T14 construct: purchased Reaction Biology (assay service)
T14 sequence (Q9NYV4 whole entry): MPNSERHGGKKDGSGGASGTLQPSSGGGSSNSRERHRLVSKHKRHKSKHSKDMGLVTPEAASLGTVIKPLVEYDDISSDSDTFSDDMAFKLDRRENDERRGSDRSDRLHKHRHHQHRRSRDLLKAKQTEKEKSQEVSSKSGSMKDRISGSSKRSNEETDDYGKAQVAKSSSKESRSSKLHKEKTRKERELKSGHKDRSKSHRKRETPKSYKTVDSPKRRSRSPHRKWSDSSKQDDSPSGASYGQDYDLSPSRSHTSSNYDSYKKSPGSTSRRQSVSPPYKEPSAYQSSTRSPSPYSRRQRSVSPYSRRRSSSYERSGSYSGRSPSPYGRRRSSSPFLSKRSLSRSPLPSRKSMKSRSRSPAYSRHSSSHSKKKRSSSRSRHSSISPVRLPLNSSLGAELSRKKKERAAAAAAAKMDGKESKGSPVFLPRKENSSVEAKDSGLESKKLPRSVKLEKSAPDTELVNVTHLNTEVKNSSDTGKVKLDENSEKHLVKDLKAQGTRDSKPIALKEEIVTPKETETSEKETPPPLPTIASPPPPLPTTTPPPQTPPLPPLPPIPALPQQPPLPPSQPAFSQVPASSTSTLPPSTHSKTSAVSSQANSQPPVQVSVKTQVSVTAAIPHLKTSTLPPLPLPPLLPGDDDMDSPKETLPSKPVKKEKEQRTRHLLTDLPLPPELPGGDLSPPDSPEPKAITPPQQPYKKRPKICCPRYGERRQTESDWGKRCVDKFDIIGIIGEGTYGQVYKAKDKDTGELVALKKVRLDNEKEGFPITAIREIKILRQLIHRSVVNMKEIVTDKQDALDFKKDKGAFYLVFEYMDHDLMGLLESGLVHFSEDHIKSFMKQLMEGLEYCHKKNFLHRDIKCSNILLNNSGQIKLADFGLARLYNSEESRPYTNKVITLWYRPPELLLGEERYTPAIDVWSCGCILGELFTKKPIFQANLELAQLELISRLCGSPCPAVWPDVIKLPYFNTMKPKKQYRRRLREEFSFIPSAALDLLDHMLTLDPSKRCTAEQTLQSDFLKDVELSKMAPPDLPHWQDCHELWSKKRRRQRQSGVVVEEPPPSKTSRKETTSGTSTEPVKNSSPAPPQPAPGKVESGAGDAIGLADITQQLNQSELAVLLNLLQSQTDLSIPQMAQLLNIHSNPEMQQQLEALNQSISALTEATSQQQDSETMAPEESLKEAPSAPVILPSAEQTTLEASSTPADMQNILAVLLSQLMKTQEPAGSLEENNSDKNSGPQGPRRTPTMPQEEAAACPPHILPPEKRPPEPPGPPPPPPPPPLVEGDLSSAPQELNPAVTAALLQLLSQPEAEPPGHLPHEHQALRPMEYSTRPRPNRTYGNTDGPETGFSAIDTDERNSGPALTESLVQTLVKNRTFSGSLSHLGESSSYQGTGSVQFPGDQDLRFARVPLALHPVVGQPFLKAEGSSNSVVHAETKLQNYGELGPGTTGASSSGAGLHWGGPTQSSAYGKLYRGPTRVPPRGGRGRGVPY
Method: as §1

350 wild-type kinases [15] = target: T15, 350 wild-type kinases (Homo sapiens, UniProt Q9BWU1); details: kinase CDK19/CycC, ATP 3 µM, singlicate
T15 construct: purchased Reaction Biology (assay service)
T15 sequence (Q9BWU1 whole entry): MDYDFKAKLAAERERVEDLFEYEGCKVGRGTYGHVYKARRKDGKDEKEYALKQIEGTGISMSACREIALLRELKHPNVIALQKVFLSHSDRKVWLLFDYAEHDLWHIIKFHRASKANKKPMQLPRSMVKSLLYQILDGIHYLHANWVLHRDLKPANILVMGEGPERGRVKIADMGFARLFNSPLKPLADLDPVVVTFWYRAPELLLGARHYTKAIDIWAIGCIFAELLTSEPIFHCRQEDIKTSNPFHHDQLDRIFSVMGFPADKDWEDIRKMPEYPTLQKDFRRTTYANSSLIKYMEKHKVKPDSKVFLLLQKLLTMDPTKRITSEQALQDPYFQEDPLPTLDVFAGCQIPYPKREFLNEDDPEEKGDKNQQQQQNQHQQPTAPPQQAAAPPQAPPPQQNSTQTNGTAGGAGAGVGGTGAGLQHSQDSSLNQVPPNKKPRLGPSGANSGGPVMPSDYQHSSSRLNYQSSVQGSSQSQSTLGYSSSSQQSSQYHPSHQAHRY
Method: as §1

350 wild-type kinases [16] = target: T16, 350 wild-type kinases (Homo sapiens, UniProt Q07912); details: kinase ACK1, ATP 1 µM, singlicate
T16 construct: purchased Reaction Biology (assay service)
Method: as §1

350 wild-type kinases [17] = target: T17, 350 wild-type kinases (Homo sapiens, UniProt P00519); details: kinase ABL1, ATP 0,3 µM, singlicate
T17 construct: purchased Reaction Biology (assay service)
Method: as §1

350 wild-type kinases [18] = target: T18, 350 wild-type kinases (Homo sapiens, UniProt P15056); details: kinase BRAF, ATP 1 µM, singlicate
T18 construct: purchased Reaction Biology (assay service)
Method: as §1

350 wild-type kinases [19] = target: T19, 350 wild-type kinases (Homo sapiens, UniProt Q8IU85); details: kinase CAMK1D, ATP 0,3 µM, singlicate
T19 construct: purchased Reaction Biology (assay service)
T19 sequence (Q8IU85 whole entry): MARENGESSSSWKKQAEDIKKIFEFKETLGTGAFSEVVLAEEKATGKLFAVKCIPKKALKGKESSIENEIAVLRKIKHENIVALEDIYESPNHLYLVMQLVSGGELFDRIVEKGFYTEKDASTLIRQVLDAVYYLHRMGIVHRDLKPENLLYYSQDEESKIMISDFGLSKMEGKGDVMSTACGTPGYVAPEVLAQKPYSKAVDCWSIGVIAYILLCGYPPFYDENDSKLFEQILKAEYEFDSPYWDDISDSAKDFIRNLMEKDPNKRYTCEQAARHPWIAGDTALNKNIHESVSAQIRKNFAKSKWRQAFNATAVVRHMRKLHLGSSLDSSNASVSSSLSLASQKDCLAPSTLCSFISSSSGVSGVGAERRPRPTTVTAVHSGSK
Method: as §1

350 wild-type kinases [20] = target: T20, 350 wild-type kinases (Homo sapiens, UniProt Q9UQM7); details: kinase CAMK2A, ATP 3 µM, singlicate
T20 construct: purchased Reaction Biology (assay service)
Method: as §1

350 wild-type kinases [21] = target: T21, 350 wild-type kinases (Homo sapiens, UniProt Q16832); details: kinase DDR2, ATP 0,1 µM, singlicate
T21 construct: purchased Reaction Biology (assay service)
Method: as §1

350 wild-type kinases [22] = target: T22, 350 wild-type kinases (Homo sapiens, UniProt Q13882); details: kinase BRK, ATP 3 µM, singlicate
T22 construct: purchased Reaction Biology (assay service)
T22 sequence (Q13882 whole entry): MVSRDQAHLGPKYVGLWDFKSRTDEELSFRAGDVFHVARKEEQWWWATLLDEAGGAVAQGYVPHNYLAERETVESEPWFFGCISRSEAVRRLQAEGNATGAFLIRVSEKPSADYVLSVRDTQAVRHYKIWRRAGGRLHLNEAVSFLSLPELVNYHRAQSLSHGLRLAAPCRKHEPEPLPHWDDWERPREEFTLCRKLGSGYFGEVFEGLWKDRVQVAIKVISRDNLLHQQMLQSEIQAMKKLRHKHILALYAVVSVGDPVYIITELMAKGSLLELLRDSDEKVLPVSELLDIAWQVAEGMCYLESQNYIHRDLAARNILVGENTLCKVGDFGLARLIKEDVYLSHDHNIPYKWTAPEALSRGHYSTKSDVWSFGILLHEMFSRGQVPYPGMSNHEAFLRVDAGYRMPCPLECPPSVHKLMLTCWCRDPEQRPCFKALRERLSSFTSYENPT
Method: as §1

T1 sequence (Q9Y243 whole entry): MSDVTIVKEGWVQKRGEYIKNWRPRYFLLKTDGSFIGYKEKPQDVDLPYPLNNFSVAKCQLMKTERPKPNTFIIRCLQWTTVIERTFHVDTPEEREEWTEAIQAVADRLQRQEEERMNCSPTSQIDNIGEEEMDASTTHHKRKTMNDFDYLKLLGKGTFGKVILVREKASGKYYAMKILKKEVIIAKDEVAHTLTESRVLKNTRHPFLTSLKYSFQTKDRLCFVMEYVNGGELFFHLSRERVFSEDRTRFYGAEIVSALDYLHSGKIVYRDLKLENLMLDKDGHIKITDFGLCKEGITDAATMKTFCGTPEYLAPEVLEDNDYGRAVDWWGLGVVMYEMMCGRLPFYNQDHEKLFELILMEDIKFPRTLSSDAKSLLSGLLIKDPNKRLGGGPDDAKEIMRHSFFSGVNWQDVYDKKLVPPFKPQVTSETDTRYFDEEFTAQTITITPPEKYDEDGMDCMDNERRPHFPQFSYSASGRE

CCSc1nc(NC)c2c(-c3cccc(NC(=O)Nc4cc(C(C)(C)C)nn4-c4ccc(C)cc4)c3)c[nH]c2n1 [Compound 32]
Residual activity (% of control), AKT3 (350 wild-type kinases [1]; Assay Conc. 1.0E-05 M): 113 % of control
Residual activity (% of control), AKT3 (350 wild-type kinases [1]; Assay Conc. 1.0E-06 M): 115 % of control
Residual activity (% of control), CDK9/CycK (350 wild-type kinases [2]; Assay Conc. 1.0E-05 M): 86 % of control
Residual activity (% of control), CDK9/CycK (350 wild-type kinases [2]; Assay Conc. 1.0E-06 M): 111 % of control
Residual activity (% of control), CDK9/CycT1 (350 wild-type kinases [2]; Assay Conc. 1.0E-05 M): 85 % of control
Residual activity (% of control), CDK9/CycT1 (350 wild-type kinases [2]; Assay Conc. 1.0E-06 M): 106 % of control
Residual activity (% of control), AKT1 (350 wild-type kinases [3]; Assay Conc. 1.0E-05 M): 91 % of control
Residual activity (% of control), AKT1 (350 wild-type kinases [3]; Assay Conc. 1.0E-06 M): 103 % of control
Residual activity (% of control), CAMK4 (350 wild-type kinases [4]; Assay Conc. 1.0E-05 M): 100 % of control
Residual activity (% of control), CAMK4 (350 wild-type kinases [4]; Assay Conc. 1.0E-06 M): 113 % of control
Residual activity (% of control), CDK2/CycA2 (350 wild-type kinases [5]; Assay Conc. 1.0E-05 M): 46 % of control
Residual activity (% of control), CDK2/CycA2 (350 wild-type kinases [5]; Assay Conc. 1.0E-06 M): 105 % of control
Residual activity (% of control), CDK2/CycD1 (350 wild-type kinases [5]; Assay Conc. 1.0E-05 M): 78 % of control
Residual activity (% of control), CDK2/CycD1 (350 wild-type kinases [5]; Assay Conc. 1.0E-06 M): 110 % of control
Residual activity (% of control), CDK2/CycE1 (350 wild-type kinases [5]; Assay Conc. 1.0E-05 M): 58 % of control
Residual activity (% of control), CDK2/CycE1 (350 wild-type kinases [5]; Assay Conc. 1.0E-06 M): 103 % of control
Residual activity (% of control), ACVRL1 (350 wild-type kinases [6]; Assay Conc. 1.0E-05 M): 80 % of control
Residual activity (% of control), ACVRL1 (350 wild-type kinases [6]; Assay Conc. 1.0E-06 M): 97 % of control
Residual activity (% of control), CK1gamma2 (350 wild-type kinases [7]; Assay Conc. 1.0E-05 M): 88 % of control
Residual activity (% of control), CK1gamma2 (350 wild-type kinases [7]; Assay Conc. 1.0E-06 M): 102 % of control
Residual activity (% of control), CDK20/CycH (350 wild-type kinases [8]; Assay Conc. 1.0E-05 M): 87 % of control
Residual activity (% of control), CDK20/CycH (350 wild-type kinases [8]; Assay Conc. 1.0E-06 M): 103 % of control
Residual activity (% of control), CDK20/CycT1 (350 wild-type kinases [8]; Assay Conc. 1.0E-05 M): 84 % of control
Residual activity (% of control), CDK20/CycT1 (350 wild-type kinases [8]; Assay Conc. 1.0E-06 M): 99 % of control
Residual activity (% of control), CDK1/CycA2 (350 wild-type kinases [9]; Assay Conc. 1.0E-05 M): 62 % of control
Residual activity (% of control), CDK1/CycA2 (350 wild-type kinases [9]; Assay Conc. 1.0E-06 M): 110 % of control
Residual activity (% of control), CDK1/CycB1 (350 wild-type kinases [9]; Assay Conc. 1.0E-05 M): 82 % of control
Residual activity (% of control), CDK1/CycB1 (350 wild-type kinases [9]; Assay Conc. 1.0E-06 M): 105 % of control
Residual activity (% of control), CDK1/CycE1 (350 wild-type kinases [9]; Assay Conc. 1.0E-05 M): 51 % of control
Residual activity (% of control), CDK1/CycE1 (350 wild-type kinases [9]; Assay Conc. 1.0E-06 M): 104 % of control
Residual activity (% of control), CDK15/CycA2 (350 wild-type kinases [10]; Assay Conc. 1.0E-05 M): 92 % of control
Residual activity (% of control), CDK15/CycA2 (350 wild-type kinases [10]; Assay Conc. 1.0E-06 M): 116 % of control
Residual activity (% of control), CDK15/CycB1 (350 wild-type kinases [10]; Assay Conc. 1.0E-05 M): 86 % of control
Residual activity (% of control), CDK15/CycB1 (350 wild-type kinases [10]; Assay Conc. 1.0E-06 M): 98 % of control
Residual activity (% of control), CLK3 (350 wild-type kinases [11]; Assay Conc. 1.0E-05 M): 66 % of control
Residual activity (% of control), CLK3 (350 wild-type kinases [11]; Assay Conc. 1.0E-06 M): 90 % of control
Residual activity (% of control), CSK (350 wild-type kinases [12]; Assay Conc. 1.0E-05 M): 69 % of control
Residual activity (% of control), CSK (350 wild-type kinases [12]; Assay Conc. 1.0E-06 M): 97 % of control
Residual activity (% of control), ACVR2B (350 wild-type kinases [13]; Assay Conc. 1.0E-05 M): 98 % of control
Residual activity (% of control), ACVR2B (350 wild-type kinases [13]; Assay Conc. 1.0E-06 M): 123 % of control
Residual activity (% of control), CDK12/CycK (350 wild-type kinases [14]; Assay Conc. 1.0E-05 M): 87 % of control
Residual activity (% of control), CDK12/CycK (350 wild-type kinases [14]; Assay Conc. 1.0E-06 M): 99 % of control
Residual activity (% of control), CDK19/CycC (350 wild-type kinases [15]; Assay Conc. 1.0E-05 M): 54 % of control
Residual activity (% of control), CDK19/CycC (350 wild-type kinases [15]; Assay Conc. 1.0E-06 M): 97 % of control
Residual activity (% of control), ACK1 (350 wild-type kinases [16]; Assay Conc. 1.0E-05 M): 74 % of control
Residual activity (% of control), ACK1 (350 wild-type kinases [16]; Assay Conc. 1.0E-06 M): 90 % of control
Residual activity (% of control), ABL1 (350 wild-type kinases [17]; Assay Conc. 1.0E-05 M): 70 % of control
Residual activity (% of control), ABL1 (350 wild-type kinases [17]; Assay Conc. 1.0E-06 M): 102 % of control
Residual activity (% of control), BRAF (350 wild-type kinases [18]; Assay Conc. 1.0E-05 M): 65 % of control
Residual activity (% of control), BRAF (350 wild-type kinases [18]; Assay Conc. 1.0E-06 M): 98 % of control
Residual activity (% of control), CAMK1D (350 wild-type kinases [19]; Assay Conc. 1.0E-05 M): 101 % of control
Residual activity (% of control), CAMK1D (350 wild-type kinases [19]; Assay Conc. 1.0E-06 M): 113 % of control
Residual activity (% of control), CAMK2A (350 wild-type kinases [20]; Assay Conc. 1.0E-05 M): 63 % of control
Residual activity (% of control), CAMK2A (350 wild-type kinases [20]; Assay Conc. 1.0E-06 M): 94 % of control
Residual activity (% of control), DDR2 (350 wild-type kinases [21]; Assay Conc. 1.0E-05 M): 20 % of control
Residual activity (% of control), DDR2 (350 wild-type kinases [21]; Assay Conc. 1.0E-06 M): 79 % of control
Residual activity (% of control), BRK (350 wild-type kinases [22]; Assay Conc. 1.0E-05 M): 79 % of control
Residual activity (% of control), BRK (350 wild-type kinases [22]; Assay Conc. 1.0E-06 M): 109 % of control

From publication PMC12136037, “Type II kinase inhibitors that target Parkinson’s disease–associated LRRK2” (Science Advances, 2025)
